In patent US11834480B2 (priority 2020, dated 2023):
pIC50, pKd: −log10 of the molar value. Square brackets hold non-standard residues; d marks the D form.

Columns and labels:
[1] = target: D-form of SARS-CoV-2 HR1 (SARS CoV-2 D-HR1-biotin) (Severe acute respiratory syndrome coronavirus 2, UniProt P0DTC2); type: binding
[2] = target: L-form of SARS-CoV-2 HR1 (SARS CoV-2 HR1-biotin) (Severe acute respiratory syndrome coronavirus 2, UniProt P0DTC2); assay: biochemical; type: binding
[3] = test system: SARS CoV-2 pseudotyped lentivirus; type: cell-based; settings: read-out: observed IC50, inhibition of pseudotyped virus infection

ATVKFTYQGEEKQVDISKIKYVLRIGQAIWFRYDEGGGAIGNGWVSEEDAPKELLQMLEKR [SEQ ID NO:51]
affinity for SARS CoV-2 D-HR1-biotin compared with parental SEQ ID NO: 11 [1]: higher affinity

ATVKFTYQGEEKQVDISKIKYVLRIGQAIWFRYDEGGGAIGNGWVSEEDAPKELLQMLGKR [SEQ ID NO:53]
affinity for SARS CoV-2 D-HR1-biotin compared with parental SEQ ID NO: 11 [1]: higher affinity

[dA][dT][dV][dK][dF][dT][dY][dQ]G[dE][dE][dK][dQ][dV][dD][dI][dS][dK][dI][dK][dY][dV][dL][dR][dI]G[dQ][dA][dI][dW][dF][dR][dY][dD][dE]GGG[dA][dI]G[dN]G[dW][dV][dS][dE][dK][dD][dA][dP][dK][dE][dL][dL][dQ][dM][dL][dE][dK][dQ] [SEQ ID NO:12]
pKd [2]: 6.09 | pIC50 [3]: 5.66
